# Laboratory results from ChEMBL document CHEMBL1201862, “PubChem BioAssay data set” (2004).
#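 Values below derive from 48-hour exposures of cells grown in 96-well plates, with endpoints linearly interpolated between the two concentrations bracketing the appropriate inhibition level. GI50: concentration for 50% inhibition of growth.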 The source made the active and inactive calls. No stated cut-off is given here; in the data, active = GI50 up to about 1.1 µM and inactive = higher.
# How the values were obtained:
# Assay in all cases: NCI anticancer screen, dose series, 48 h
# 786-0 = tested on: 786-0
# A498 = tested on: A498
# A549 = tested on: A549
# ACHN = tested on: ACHN
# BT-549 = tested on: BT-549
# CAKI-1 = tested on: CAKI-1
# CCRF-CEM = tested on: CCRF-CEM
# COLO 205 = tested on: COLO 205
# DU-145 = tested on: DU-145
# EKVX = tested on: EKVX
# HCC 2998 = tested on: HCC 2998
# HCT-116 = tested on: HCT-116
# HCT-15 = tested on: HCT-15
# HL-60 = tested on: HL-60
# HOP-62 = tested on: HOP-62
# HOP-92 = tested on: HOP-92
# HT-29 = tested on: HT-29
# Hs-578T = tested on: Hs-578T
# IGROV-1 = tested on: IGROV-1
# K562 = tested on: K562
# KM12 = tested on: KM12
# LOX IMVI = tested on: LOX IMVI
# M14 = tested on: M14
# MCF7 = tested on: MCF7
# MDA-MB-231 = tested on: MDA-MB-231
# MDA-MB-435 = tested on: MDA-MB-435
# MDA-N = tested on: MDA-N
# MOLT-4 = tested on: MOLT-4
# Malme-3M = tested on: Malme-3M
# NCI-H226 = tested on: NCI-H226
# NCI-H23 = tested on: NCI-H23
# NCI-H460 = tested on: NCI-H460
# NCI-H522 = tested on: NCI-H522
# NCI/ADR-RES = tested on: NCI/ADR-RES
# OVCAR-3 = tested on: OVCAR-3
# OVCAR-4 = tested on: OVCAR-4
# OVCAR-5 = tested on: OVCAR-5
# OVCAR-8 = tested on: OVCAR-8
# PC-3 = tested on: PC-3
# RPMI-8226 = tested on: RPMI-8226
# RXF 393 = tested on: RXF 393
# SF-268 = tested on: SF-268
# SF-295 = tested on: SF-295
# SF-539 = tested on: SF-539
# SK-MEL-28 = tested on: SK-MEL-28
# SK-MEL-2 = tested on: SK-MEL-2
# SK-MEL-5 = tested on: SK-MEL-5
# SK-OV-3 = tested on: SK-OV-3
# SN12C = tested on: SN12C
# SNB-19 = tested on: SNB-19
# SNB-75 = tested on: SNB-75
# SR = tested on: SR
# SW-620 = tested on: SW-620
# T47D = tested on: T47D
# TK-10 = tested on: TK-10
# U-251 = tested on: U-251
# UACC-257 = tested on: UACC-257
# UACC-62 = tested on: UACC-62
# UO-31 = tested on: UO-31
smiles,measurement,setting,value
C=CCCCCNC(=O)C[C@@H]1C2=C(CC[C@H]1O[Si](C)(C)C(C)(C)C)N1C(=O)CCC/C=C\C1C2 (stereo partly specified),GI50,786-0,15.4 µM (inactive)
same,GI50,A498,15.2 µM (inactive)
same,GI50,A549,13.1 µM (inactive)
same,GI50,ACHN,15.4 µM (inactive)
same,GI50,BT-549,16.6 µM (inactive)
same,GI50,CAKI-1,12.4 µM (inactive)
same,GI50,CCRF-CEM,10.6 µM (inactive)
same,GI50,COLO 205,13.6 µM (inactive)
same,GI50,DU-145,15 µM (inactive)
same,GI50,EKVX,17.3 µM (inactive)
same,GI50,HCC 2998,10.4 µM (inactive)
same,GI50,HCT-116,13.3 µM (inactive)
same,GI50,HCT-15,14 µM
same,GI50,HL-60,1.84 µM (inactive)
same,GI50,HOP-62,17.9 µM (inactive)
same,GI50,HOP-92,11 µM (inactive)
same,GI50,HT-29,12.3 µM (inactive)
same,GI50,Hs-578T,16.1 µM (inactive)
same,GI50,IGROV-1,15.6 µM (inactive)
same,GI50,K562,5.3 µM (inactive)
same,GI50,KM12,15 µM (inactive)
same,GI50,LOX IMVI,17 µM (inactive)
same,GI50,M14,14.3 µM (inactive)
same,GI50,MCF7,12.2 µM (inactive)
same,GI50,MDA-MB-231,13.3 µM (inactive)
same,GI50,MDA-MB-435,14.6 µM (inactive)
same,GI50,MDA-N,16.3 µM (inactive)
same,GI50,MOLT-4,5.89 µM (inactive)
same,GI50,Malme-3M,14.7 µM (inactive)
same,GI50,NCI-H226,15.5 µM (inactive)
same,GI50,NCI-H23,13.7 µM (inactive)
same,GI50,NCI-H460,14.3 µM (inactive)
same,GI50,NCI-H522,11.7 µM (inactive)
same,GI50,NCI/ADR-RES,12.2 µM (inactive)
same,GI50,OVCAR-3,14 µM (inactive)
same,GI50,OVCAR-4,12.2 µM (inactive)
same,GI50,OVCAR-5,16 µM (inactive)
same,GI50,OVCAR-8,14.9 µM (inactive)
same,GI50,PC-3,12 µM (inactive)
same,GI50,RPMI-8226,5.71 µM (inactive)
same,GI50,RXF 393,10.8 µM (inactive)
same,GI50,SF-268,15.5 µM (inactive)
same,GI50,SF-295,14.9 µM (inactive)
same,GI50,SF-539,17.5 µM (inactive)
same,GI50,SK-MEL-28,15 µM (inactive)
same,GI50,SK-MEL-2,13.2 µM (inactive)
same,GI50,SK-MEL-5,14.1 µM (inactive)
same,GI50,SK-OV-3,16.6 µM (inactive)
same,GI50,SN12C,15.4 µM (inactive)
same,GI50,SNB-19,14.4 µM (inactive)
same,GI50,SNB-75,16.4 µM (inactive)
same,GI50,SR,5.75 µM (inactive)
same,GI50,SW-620,13.6 µM (inactive)
same,GI50,T47D,12.7 µM (inactive)
same,GI50,TK-10,16.1 µM (inactive)
same,GI50,U-251,13.5 µM (inactive)
same,GI50,UACC-257,13.1 µM (inactive)
same,GI50,UACC-62,12.9 µM (inactive)
same,GI50,UO-31,14.2 µM (inactive)
CC(=O)OCC1OC(N2C(S)=C(C#N)C(c3ccco3)C(C(C)=O)=C2c2ccccc2)C(OC(C)=O)C(OC(C)=O)C1OC(C)=O (stereo unspecified),GI50,786-0,29.3 µM (inactive)
same,GI50,A498,> 100 µM (inactive)
same,GI50,A549,49.4 µM (inactive)
same,GI50,ACHN,> 10 µM (inactive)
same,GI50,BT-549,> 100 µM (inactive)
same,GI50,CAKI-1,40.9 µM (inactive)
same,GI50,CCRF-CEM,28.3 µM (inactive)
same,GI50,COLO 205,64.9 µM (inactive)
same,GI50,DU-145,79.8 µM (inactive)
same,GI50,HCC 2998,> 100 µM (inactive)
same,GI50,HCT-116,51.9 µM (inactive)
same,GI50,HCT-15,> 100 µM
same,GI50,HL-60,> 100 µM (inactive)
same,GI50,HOP-62,16.9 µM (inactive)
same,GI50,HOP-92,32.9 µM (inactive)
same,GI50,HT-29,> 100 µM (inactive)
same,GI50,Hs-578T,17.7 µM (inactive)
same,GI50,IGROV-1,54.5 µM (inactive)
same,GI50,K562,> 100 µM (inactive)
same,GI50,KM12,> 100 µM (inactive)
same,GI50,LOX IMVI,32.1 µM (inactive)
same,GI50,M14,94.6 µM (inactive)
same,GI50,MCF7,> 100 µM (inactive)
same,GI50,MDA-MB-231,> 100 µM (inactive)
same,GI50,MDA-MB-435,> 100 µM (inactive)
same,GI50,MDA-N,26.2 µM (inactive)
same,GI50,MOLT-4,> 100 µM (inactive)
same,GI50,Malme-3M,52.5 µM (inactive)
same,GI50,NCI-H226,> 100 µM (inactive)
same,GI50,NCI-H23,64.4 µM (inactive)
same,GI50,NCI-H460,> 100 µM (inactive)
same,GI50,NCI-H522,32.1 µM (inactive)
same,GI50,NCI/ADR-RES,> 100 µM (inactive)
same,GI50,OVCAR-3,77.6 µM (inactive)
same,GI50,OVCAR-4,13.4 µM (inactive)
same,GI50,OVCAR-5,62.4 µM (inactive)
same,GI50,OVCAR-8,61 µM (inactive)
same,GI50,PC-3,24.9 µM (inactive)
same,GI50,RPMI-8226,95.9 µM (inactive)
same,GI50,RXF 393,> 100 µM (inactive)
same,GI50,SF-268,> 100 µM (inactive)
same,GI50,SF-295,23.4 µM (inactive)
same,GI50,SF-539,78.5 µM (inactive)
same,GI50,SK-MEL-28,30.1 µM (inactive)
same,GI50,SK-MEL-2,> 100 µM (inactive)
same,GI50,SK-MEL-5,29 µM (inactive)
same,GI50,SN12C,29.4 µM (inactive)
same,GI50,SNB-19,39.5 µM (inactive)
same,GI50,SNB-75,8.49 µM (inactive)
same,GI50,SR,> 100 µM (inactive)
same,GI50,SW-620,89.9 µM (inactive)
same,GI50,T47D,> 100 µM (inactive)
same,GI50,TK-10,> 100 µM (inactive)
same,GI50,U-251,39.3 µM (inactive)
same,GI50,UACC-257,> 100 µM (inactive)
same,GI50,UACC-62,34 µM (inactive)
same,GI50,UO-31,29.3 µM (inactive)
